Results: US20070299029A1, “Hepatic stellate cell specific promoter and uses thereof” (Agency for Science, Technology and Research, priority 2005, published 2007)

B1: PDGF-BB: recombinant human platelet derived growth factor-BB, pro-fibrotic cytokine (BioVision) (protein, UniProt P01127 82-190, looked up)
Platelet-derived growth …: SLGSLTIAEPAMIAECKTRTEVFEISRRLIDRTNANFLVWPPCVEVQRCSGCCNNRNVQCRPTQVQLRPVQVRKIEIVRKKPIFKKATVTLEDHLACKCETVAAARPVT

Key:
[1] = test system: GFAP-lacZ expression in T6/lacZ/C1 cells; assay: X-gal staining of T6/lacZ/C1 cells treated with TGF-β1, PDGF-BB and LPS; assay type: cell-based, rat; details: 0.1 to 10 ng/ml, full DMEM, 72 hours, X-gal one hour
Experimental: A lacZ reporter assay kit for cell staining (InvivoGen, CA, USA) was used to detect the reporter gene activity in both stable and transient transfectants. Development of the blue end product was monitored at different time intervals (15, 30, 60, 90, and 120 minutes). The staining results were documented with a digital camera (DP12) attached to an Olympus inverted bright field microscope (IX51).
To determine possible induction of GFAP-lacZ expression by molecules with pro-fibrotic and proinflammatory properties in activated HSC the T6/lacZ/C1 cells were treated with TGF-β1, PDGF-BB and LPS respectively at various concentrations (0, 0.1, 1 and 10 ng/ml) in the full DMEM medium for 72 hours. The cells were then stained with X-gal for one hour and photographed. […] In order to obtain truly quantitative data, a solution assay was employed to measure possible up-regulation of β-galactosidase activity by TGF-β1 in experiments below.

[2] = test system: 2.2 kb hGFAP-lacZ transgene in T6/lacZ/C1 cells; assay: quantitative solution assay of β-galactosidase activity in T6/lacZ/C1 cells; assay type: cell-based, rat
Experimental: To quantify the β-galactosidase activity in cell extracts reported in FIGS. 4 to 10, an enzyme assay kit (E2000, Promega, Wis., USA) was used to measure the specific activity of P-galactosidase, according to the manufacturer's instructions in a 96-well format. Briefly, the cells were washed twice with 1×PBS buffer (pH7.4), lysed for 15 minutes at room temperature with the reporter lysis buffer, and harvested using a cell scraper. The total cell extracts were appropriately diluted (5-10 fold), and assayed for the enzyme activity. The specific β-galactosidase activity was expressed in milliunit per milliliter (mU/ml) using a standard curve established from the β-galactosidase standard (provided with the kit). The protein concentration was measured with a BCA protein assay kit (Pierce, Ill., USA), and used to further convert the specific β-galactosidase activity from mU/ml to mU/μg total cellular protein. Six independent experiments were performed for each time and concentration data point.
(§1) Cells were seeded into 12-well plates in full DMEM and 500 μg/ml Zeocin. Twelve hours prior to the cytokine treatment, medium was changed so that the cells were allowed to grow in low serum (0.5% FBS) DMEM. The cells at a confluence of 70-80% were incubated with various concentrations (0, 0.1, 1 and 10 ng/ml) of recombinant human TGF-β1, PDGF-BB (BioVision, CA, USA) and 0, 0.1, 1 and 10 μg/ml lipopolysaccharide (LPS E. coli, Sigma) respectively for 0, 2, 8, 16, 24, 48 and 72 hours before they were harvested for β-galactosidase activity assay and real-time RT-PCR GFAP assay.
To quantify specific transgene response to TGF-β1, we first set up an experiment to assess possible effects that serum concentration and culture duration may have on the transgene expression. T6/lacZ/C1 cells were initially grown in DMEM with high serum (10% FBS), and then some of the cells were starved with a DMEM with low serum (0.5% FBS) for 12 hours prior to the addition of TGF-β1 (1 ng/ml). After incubation for various times (0, 2, 8, 24, 48 and 72 hours), cells were harvested for β-galactosidase activity assay. […] After 72 hours, the level slipped to 58% of the value at 0 hour (P<0.001). The assay results were depicted in FIG. 8.
To further dissect the TGF-β1 contribution to the transgene induction, we treated T6/lacZ/C1 cells grown in low serum with various concentrations of TGF-β1 (0, 0.1, 1, 10 ng/ml) and assayed the enzymatic activity for three time points (24, 48 and 72 hours). The assay results were plotted in FIG. 9. […] When the non-treatment groups were normalized to 1 and the magnitude of induction were plotted for the 10 ng/ml treatment groups at all three time points (FIG. 10), a trend of increasing induction with time was apparent.

endogenous rat GFAP mRNA [3] = assay: real-time RT-PCR for endogenous rat GFAP mRNA in T6/lacZ/C1 cells; assay type: cell-based
Experimental: as §1
Total RNA was reverse transcribed to cDNA using Taqman's reverse transcription reagent (Cat. #N8O8-0234A total of 400 ng of RNA in 7.7 μl nuclease-free water was added to 2 μl 10× reverse transcriptase buffer, 4.4 μl 25 mM magnesium chloride, 4 μl deoxyNTP mixtures, 1 μl random hexamers, 0.4 μl RNase inhibitor and 0.5 μl reverse transcriptase (50 U/μl) in a final reaction volume of 20 μl. The reaction was performed for 10 min at 25° C. (annealing), 30 min at 48° C. (cDNA synthesis) and 5 min at 95° C. (enzyme denaturation).
Real-time quantitative PCR was carried out with an ABI 7500 Real Time PCR System (Applied Biosystems, CA, USA). One microliter of sample cDNA was used in each PCR reaction, with the housekeeping β-actin gene as a reference for normalization. The primers and probes for rat β-actin and GFAP were purchased from Taqman's assay-on-demand database. […]
(§2) Relative quantitation of the target mRNA was calculated using the comparative threshold cycle (CT) methods as described in the User Bulletin #2 (ABI Prism 7700 Sequence Detection System). CT indicates the fractional cycle number at which the amount of amplified target reaches a fixed threshold within the linear phase of gene amplification. ΔCT, which reflects the difference between CT target and CT β-actin, is inversely correlated to the abundance of mRNA transcripts in the samples. ΔCT for each sample was normalized against control experiment or calibrator and expressed as ΔΔCT. Relative quantitation is given by 2^−ΔΔCT to express the up-regulation or down regulation of the target gene under the treatments compared to the control. Six independent experiments were performed for each data point and three ACT were measured for each experiment.
It was known that GFAP, along with desmin, SMAA, and vimentin, was expressed in the clonal T6 cells (Vogel et al. (2000), J Lipid Res. 41(6):882). […] In order to investigate how the endogenous GFAP expression is regulated by TGF-β1 in the T6/lacZ/C1 cells during different time course, we quantified rat GFAP mRNA level using a real-time RT-PCR method. […] Total RNA was isolated from different cells and quantified as described in Materials and Methods, and the results were depicted in FIG. 11.

endogenous rat GFAP mRNA [4] = assay: real-time RT-PCR for endogenous rat GFAP mRNA in T6/GFAP-lacZ cells; assay type: cell-based; details: 10 ng/ml PDGF-BB, 24 hours, low serum DMEM
Experimental: (§3) Cells were initially seeded in 12-well plates in DMEM supplemented with 10% FBS and weaned to a low serum DMEM (0.5% FBS) at a confluence of 70-80% for 12 hours of adaptation. Cells were then incubated with different concentrations of compounds for various amounts of time before being assayed for β-galactosidase activity and GFAP mRNA. For compound attenuation studies, cells were treated with a pro-fibrotic cytokine (TGF-β1 or PDGF-BB) either sequentially or concurrently with a compound (EGCG or genistein). In the sequential scheme, cells were first treated with a cytokine for 1-3 days, then the cytokine-containing culture medium was replaced with a fresh medium containing a particular compound only for various times. Details of the cytokine/compound treatments can be found in the individual figure legends.
Total RNA was reverse-transcribed to cDNA using Taqman's reverse transcription reagent (Applied Biosystems, CA, USA). A total of 200 ng of RNA in 7.7 μl of nuclease-free water was added to 2 μl 10× reverse transcriptase buffer, 4.4 μl 25 mM magnesium chloride, 4 μl deoxyNTP mixtures, 1 μl random hexamers, 0.4 μl RNase inhibitor and 0.5 μl reverse transcriptase (50 U/μl) in a final reaction volume of 20 μl. The reaction was performed for 10 min at 25° C. (annealing), 30 min at 48° C. (cDNA synthesis) and 5 min at 95° C. (enzyme denaturation).
Real-time quantitative PCR was carried out with an ABI 7500 Fast Real-time PCR System (Applied Biosystems, CA, USA). Two micro liters of sample cDNA were used in each PCR reaction, with β-actin gene as a reference for normalization. The primers and probes for rat β-actin and GFAP were ordered from Taqman's assay-on-demand database. The PCR reaction was performed under a default profile consisting of 95° C. for 20 seconds (enzyme denaturation) and 40 cycles of amplification (denaturation 3 seconds, annealing and extension 30 seconds). Some of the real-time RT-PCR reactions were separated on an agarose gel for visual confirmation of discrete products (data not shown).
as §2, with “samples. ACT” for “samples. ΔCT”, “or down-regulation” for “or down regulation”, “control.” for “control. Six independent experiments were performed for each data point and three ACT were measured for each experiment.”

GFAP-lacZ transgene = assay: chemiluminescent β-galactosidase activity assay of GFAP-lacZ transgene expression in T6/GFAP-lacZ cells; assay type: cell-based, rat; details: 10 ng/ml PDGF-BB, 48 hours, low serum DMEM
Experimental: as §3
A lacZ reporter assay kit for cell staining (InvivoGen, CA, USA) was used to detect the reporter gene activity in T6/GFAP-lacZ cells treated with EGCG or genistein. The staining results were documented with a digital camera (DP12) attached to an Olympus inverted bright field microscope (IX51) after development for 60 min. For quantification, the β-galactosidase activity in cell extracts was measured using a chemiluminescent assay kit (Roche, Mannheim, Germany) in a 96-well plate format, according to the manufacturer's instructions. Briefly, cells were washed twice with ice-cold 1×PBS (pH 7.4), lysed for 30 minutes at room temperature with the lysis buffer, and supernatant was collected for assays. Protein concentration was determined with a BCA protein assay kit (Pierce, Ill., USA). Specific β-galactosidase activity was obtained by normalizing against total cellular protein content.

[5] = 10 ng/ml TGF-β1, low serum, 72 hours

| Molecule | X-gal blue staining compared to the untreated [1] | specific β-galactosidase activity ([2]; 1 ng/ml TGF-β1, 0.5% FBS, 24 hour (peak)) [mU/μg] | transgene expression level relative to 0 hour ([2]; 1 ng/ml TGF-β1, 0.5% FBS, 48 hours) | transgene expression level, % of the value at 0 hour ([2]; 1 ng/ml TGF-β1, 0.5% FBS, 72 hours) [%] | induction of β-galactosidase activity ([2]; 10 ng/ml TGF-β1, low serum, 24, 48 and 72 hours) | absolute enzymatic (β-galactosidase) activity [2, 5] [mU/μg] | magnitude of induction of β-galactosidase activity vs non-treatment group (normalized to 1) [2, 5] | GFAP mRNA level relative to basal level at 0 hour (normalized to 1) (endogenous rat GFAP mRNA [3]; 1 ng/ml TGF-β1, 16 hour) [fold] | GFAP mRNA level relative to basal level at 0 hour (normalized to 1) (endogenous rat GFAP mRNA [3]; 1 ng/ml TGF-β1, 48 hours) [fold] | GFAP mRNA level relative to basal level at 0 hour (normalized to 1) (endogenous rat GFAP mRNA [3]; 1 ng/ml TGF-β1, 72 hours) [fold] | GFAP mRNA level relative to basal level (endogenous rat GFAP mRNA [3]; 1 ng/ml TGF-β1, within the first 24 hours (except 16 hour)) | induction of endogenous GFAP (endogenous rat GFAP mRNA [4]) [%] | induction of transgenic GFAP-lacZ expression (GFAP-lacZ transgene) [%] |
| --- | --- | --- | --- | --- | --- | --- | --- | --- | --- | --- | --- | --- | --- |
| TGF-β1: recombinant human transforming growth factor-β1, pro-fibrotic cytokine (BioVision) | more intense blue staining | 0.52 | dropped to the same level as at 0 hour | 58 | Significant induction | 0.43 | nearly two fold | 0.5 | 7 | 8.5 | remained steady |  |  |
| B1 | less pronounced response |  |  |  |  |  |  |  |  |  |  | 53 | 24 |
